According to ChEMBL document CHEMBL6134887, “Linker and Head-Group Exploration of Anti-MRSA Triaromatic Pleuromutilins” (J Med Chem, 2025):
Converted amounts (≈) assume the structure as drawn.

Key:
Staphylococcus aureus = test: Antibacterial activity against methicillin resistant Staphylococcus aureus USA300 FPR3757 assessed as inhibition of bacterial growth incubated for 20 to 24 hrs by microbroth serial dilution method; assay type: functional; settings: time 20-24 hrs, read-out: MIC100
[1] = Metabolic stability in mouse liver assessed as intrinsic clearance at 1 uM measured up to 60 mins by LC-MS/MS analysis; assay type: ADME, tissue-based; settings: read-out: CLH
[2] = Metabolic stability in mouse liver microsomes assessed as half-life at 1 uM measured up to 60 mins by LC-MS/MS analysis; assay type: ADME, Microsome
[3] = Metabolic stability in human liver assessed as intrinsic clearance at 1 uM measured up to 30 mins by LC-MS/MS analysis; assay type: ADME, tissue-based; settings: read-out: CLH
[4] = Metabolic stability in human liver microsomes assessed as half-life at 1 uM measured up to 30 mins by LC-MS/MS analysis; assay type: ADME, Microsome

Structure (SMILES) | MIC (Staphylococcus aureus) | other results
C=C[C@]1(C)C[C@@H](OC(=O)Cn2cc(-c3cncc(C(=O)Nc4ccc(OC)cc4)c3)nn2)[C@]2(C)[C@H](C)CC[C@]3(CCC(=O)[C@H]32)[C@@H](C)[C@@H]1O | 0.12 µg/mL (≈ 0.183 µM) | –
C=C[C@]1(C)C[C@@H](OC(=O)Cn2cc(-c3cccc(C(=O)Nc4ncnc5[nH]cnc45)c3)nn2)[C@]2(C)[C@H](C)CC[C@]3(CCC(=O)[C@H]32)[C@@H](C)[C@@H]1O | 0.12 µg/mL (≈ 0.18 µM) | CLint scaled at 1 µM [1]: 276 L/h/kg; half-life at 1 µM [2]: 1.2 min; CLint scaled at 1 µM [3]: 140 L/h/kg; half-life at 1 µM [4]: 2.7 min
C=C[C@]1(C)C[C@@H](OC(=O)Cn2cc(-c3ccc(NC(=O)c4ccc(OC)cc4)cc3)nn2)[C@]2(C)[C@H](C)CC[C@]3(CCC(=O)[C@H]32)[C@@H](C)[C@@H]1O | 8 µg/mL (≈ 12.2 µM) | –
C=C[C@]1(C)C[C@@H](OC(=O)Cn2cc(-c3ccc(Cn4ccc(N)nc4=O)nc3)nn2)[C@]2(C)[C@H](C)CC[C@]3(CCC(=O)[C@H]32)[C@@H](C)[C@@H]1O | 8 µg/mL (≈ 12.7 µM) | –
C=C[C@]1(C)C[C@@H](OC(=O)Cn2cc(-c3ccc(Cn4ccc5c(N)ncnc54)c(OC)c3)nn2)[C@]2(C)[C@H](C)CC[C@]3(CCC(=O)[C@H]32)[C@@H](C)[C@@H]1O | 0.12 µg/mL (≈ 0.176 µM) | CLint scaled at 1 µM [1]: 486 L/h/kg; half-life at 1 µM [2]: 0.68 min; CLint scaled at 1 µM [3]: 310 L/h/kg; half-life at 1 µM [4]: 1.2 min
C=C[C@]1(C)C[C@@H](OC(=O)Cn2cc(-c3cncc(NC(=O)c4c[nH]c(=O)cn4)c3)nn2)[C@]2(C)[C@H](C)CC[C@]3(CCC(=O)[C@H]32)[C@@H](C)[C@@H]1O | 1 µg/mL (≈ 1.55 µM) | –
C=C[C@]1(C)C[C@@H](OC(=O)Cn2cc(-c3cncc(NC(=O)c4ccc(OC)nc4)c3)nn2)[C@]2(C)[C@H](C)CC[C@]3(CCC(=O)[C@H]32)[C@@H](C)[C@@H]1O | 0.12 µg/mL (≈ 0.183 µM) | CLint scaled at 1 µM [1]: 574 L/h/kg; half-life at 1 µM [2]: 0.57 min; CLint scaled at 1 µM [3]: 154 L/h/kg; half-life at 1 µM [4]: 2.4 min
C=C[C@]1(C)C[C@@H](OC(=O)Cn2cc(-c3ccc(Cn4ccnc4)cc3)nn2)[C@]2(C)[C@H](C)CC[C@]3(CCC(=O)[C@H]32)[C@@H](C)[C@@H]1O | 0.25 µg/mL (≈ 0.427 µM) | –
C=C[C@]1(C)C[C@@H](OC(=O)Cn2cc(-c3ccc(C(O)c4ccc5c(N)ncnn45)cc3)nn2)[C@]2(C)[C@H](C)CC[C@]3(CCC(=O)[C@H]32)[C@@H](C)[C@@H]1O (stereo not given in full) | 0.06 µg/mL (≈ 0.0898 µM) | –
C=C[C@]1(C)C[C@@H](OC(=O)Cn2cc(-c3cncc(C(=O)Nc4ccc(N)cc4)c3)nn2)[C@]2(C)[C@H](C)CC[C@]3(CCC(=O)[C@H]32)[C@@H](C)[C@@H]1O | 0.12 µg/mL (≈ 0.187 µM) | –
C=C[C@]1(C)C[C@@H](OC(=O)Cn2cc(-c3ccc(Cn4ccc5c(N)ncnc54)c(O)c3)nn2)[C@]2(C)[C@H](C)CC[C@]3(CCC(=O)[C@H]32)[C@@H](C)[C@@H]1O | 0.06 µg/mL (≈ 0.0898 µM) | –
C=C[C@]1(C)C[C@@H](OC(=O)Cn2cc(-c3cncc(C(=O)Nc4ccccn4)c3)nn2)[C@]2(C)[C@H](C)CC[C@]3(CCC(=O)[C@H]32)[C@@H](C)[C@@H]1O | 0.06 µg/mL (≈ 0.0957 µM) | –
C=C[C@]1(C)C[C@@H](OC(=O)Cn2cc(-c3ccc(CNc4cc(N)ncn4)cc3)nn2)[C@]2(C)[C@H](C)CC[C@]3(CCC(=O)[C@H]32)[C@@H](C)[C@@H]1O | 0.03 µg/mL (≈ 0.0478 µM) | CLint scaled at 1 µM [1]: > 600 L/h/kg; half-life at 1 µM [2]: 0.55 min; CLint scaled at 1 µM [3]: 289 L/h/kg; half-life at 1 µM [4]: 1.3 min
C=C[C@]1(C)C[C@@H](OC(=O)Cn2cc(-c3ccc(Cn4ccc5c(N)ncnc54)cc3)nn2)[C@]2(C)[C@H](C)CC[C@]3(CCC(=O)[C@H]32)[C@@H](C)[C@@H]1O | 0.06 µg/mL (≈ 0.0921 µM) | –
C=C[C@]1(C)C[C@@H](OC(=O)Cn2cc(-c3ccnc(NC(=O)c4cnc(OC)cn4)c3)nn2)[C@]2(C)[C@H](C)CC[C@]3(CCC(=O)[C@H]32)[C@@H](C)[C@@H]1O | 0.25 µg/mL (≈ 0.38 µM) | –
C=C[C@]1(C)C[C@@H](OC(=O)Cn2cc(-c3ccc(Cn4cnc5c(=O)[nH]cnc54)cc3)nn2)[C@]2(C)[C@H](C)CC[C@]3(CCC(=O)[C@H]32)[C@@H](C)[C@@H]1O | 0.06 µg/mL (≈ 0.0918 µM) | –

Structure (SMILES) | MIC (Staphylococcus aureus) | other results
C=C[C@]1(C)C[C@@H](OC(=O)Cn2cc(-c3ccc(Cn4cnc(CO)c4)nc3)nn2)[C@]2(C)[C@H](C)CC[C@]3(CCC(=O)[C@H]32)[C@@H](C)[C@@H]1O | 2 µg/mL (≈ 3.24 µM) | –
C=C[C@]1(C)C[C@@H](OC(=O)Cn2cc(-c3ccc(CNc4cc(N)ncn4)nc3)nn2)[C@]2(C)[C@H](C)CC[C@]3(CCC(=O)[C@H]32)[C@@H](C)[C@@H]1O | 0.06 µg/mL (≈ 0.0954 µM) | –
C=C[C@]1(C)C[C@@H](OC(=O)Cn2cc(-c3ccc(Cn4cnc5c(N)ncnc54)c(O)c3)nn2)[C@]2(C)[C@H](C)CC[C@]3(CCC(=O)[C@H]32)[C@@H](C)[C@@H]1O | – | CLint scaled at 1 µM [1]: 586 L/h/kg; half-life at 1 µM [2]: 0.56 min
C=C[C@]1(C)C[C@@H](OC(=O)Cn2cc(-c3cccc(Oc4ncnc5[nH]cnc45)c3)nn2)[C@]2(C)[C@H](C)CC[C@]3(CCC(=O)[C@H]32)[C@@H](C)[C@@H]1O | 0.12 µg/mL (≈ 0.188 µM) | –
C=C[C@]1(C)C[C@@H](OC(=O)Cn2cc(-c3cccc(NC(=O)c4ccc(OC)nc4)c3)nn2)[C@]2(C)[C@H](C)CC[C@]3(CCC(=O)[C@H]32)[C@@H](C)[C@@H]1O | 0.12 µg/mL (≈ 0.183 µM) | –
C=C[C@]1(C)C[C@@H](OC(=O)Cn2cc(-c3cccc(C(=O)Nc4ccccc4)c3)nn2)[C@]2(C)[C@H](C)CC[C@]3(CCC(=O)[C@H]32)[C@@H](C)[C@@H]1O | 0.25 µg/mL (≈ 0.4 µM) | –
O=C(O)Cc1ccccc1Nc1c(Cl)cccc1Cl [DICLOFENAC] | – | CLint scaled at 1 µM [1]: 16.3 L/h/kg; half-life at 1 µM [2]: 20.2 min
C=C[C@]1(C)C[C@@H](OC(=O)Cn2cc(-c3cccc(NC(=O)c4ccccc4)c3)nn2)[C@]2(C)[C@H](C)CC[C@]3(CCC(=O)[C@H]32)[C@@H](C)[C@@H]1O | 0.25 µg/mL (≈ 0.4 µM) | –
C=C[C@]1(C)C[C@@H](OC(=O)Cn2cc(-c3ccc(NC(=O)c4ccccc4)cc3)nn2)[C@]2(C)[C@H](C)CC[C@]3(CCC(=O)[C@H]32)[C@@H](C)[C@@H]1O | 4 µg/mL (≈ 6.4 µM) | –
C=C[C@]1(C)C[C@@H](OC(=O)Cn2cc(-c3ccc(Cn4cnc5c(=O)[nH]c(N)nc54)cc3)nn2)[C@]2(C)[C@H](C)CC[C@]3(CCC(=O)[C@H]32)[C@@H](C)[C@@H]1O | 2 µg/mL (≈ 2.99 µM) | –
C=C[C@]1(C)C[C@@H](OC(=O)Cn2cc(-c3cccc(Oc4nc(N)nc5[nH]cnc45)c3)nn2)[C@]2(C)[C@H](C)CC[C@]3(CCC(=O)[C@H]32)[C@@H](C)[C@@H]1O | 0.12 µg/mL (≈ 0.183 µM) | –
C=C[C@]1(C)C[C@@H](OC(=O)Cn2cc(-c3ccc(Cn4cncc4CO)nc3)nn2)[C@]2(C)[C@H](C)CC[C@]3(CCC(=O)[C@H]32)[C@@H](C)[C@@H]1O | 2 µg/mL (≈ 3.24 µM) | –
C=C[C@]1(C)C[C@@H](OC(=O)Cn2cc(-c3ccc(Cn4ccnc4N)cc3)nn2)[C@]2(C)[C@H](C)CC[C@]3(CCC(=O)[C@H]32)[C@@H](C)[C@@H]1O | 0.5 µg/mL (≈ 0.832 µM) | –
C=C[C@]1(C)C[C@@H](OC(=O)Cn2cc(-c3ccc(Cn4ccc(=O)[nH]c4=O)cc3)nn2)[C@]2(C)[C@H](C)CC[C@]3(CCC(=O)[C@H]32)[C@@H](C)[C@@H]1O | 0.12 µg/mL (≈ 0.191 µM) | –
C=C[C@]1(C)C[C@@H](OC(=O)Cn2cc(-c3ccc(Cn4cnc5c(=O)[nH]c(N)nc54)nc3)nn2)[C@]2(C)[C@H](C)CC[C@]3(CCC(=O)[C@H]32)[C@@H](C)[C@@H]1O | 8 µg/mL (≈ 11.9 µM) | –
C=C[C@]1(C)C[C@@H](OC(=O)Cn2cc(-c3ccc(Cn4cc(C)c(=O)[nH]c4=O)nc3)nn2)[C@]2(C)[C@H](C)CC[C@]3(CCC(=O)[C@H]32)[C@@H](C)[C@@H]1O | 0.12 µg/mL (≈ 0.186 µM) | –
